{
  "source": "patent US20160374979A1",
  "about": "“Method of Treatment of Alopecia with Monoterpenoids” (CELLMID LIMITED, priority 2013, published 2016)",
  "test_system": "FGF-5-dependent cell proliferation (FR-BaF3 cells expressing FGFR-1c)",
  "assay": "FR-Ba/F3 cell proliferation/viability assay in the presence of FGF-5 (CCK-8)",
  "assay_type": "cell-based, murine",
  "protocol": "Ba/F3 is a murine interleukin-3 (IL-3)-dependent pro-B cell line. […] That is, compounds were tested for their ability to modulate proliferation of FR-Ba/F3 cells in the presence of recombinant human FGF-5 (rhFGF-5) prepared according to Maeda et al., Nishi Nihon Hifuka, 69(1): 81-86, 2007.\nBriefly, a suitable plasmid expressing FGFR-1c was introduced into […] ER-Ba/F3 cells, and the cells were maintained in RPMI RPMI-1640 with 10% FBS and 1.3×10^−17 M of murine IL-3 (Sigma, St Louis, […].) containing antibiotic G418 sulfate (Promega, Medison, Wis.). The inventors compared proliferation of FR/BaF3 cells in culture medium containing IL3 or FGF-5 and a different concentration in the range from 0.005% (w/v) to 1.0% (w/v) of each test compound listed in Example 1. The FR-BaF3 cells were seeded at 5×10^4/mL cells per well in 96-well, micro-culture plates (Falcon) in RPMI-1640 culture medium containing 10% fetal bovine serum, 5 μg/mL heparin. Recombinant human FGF-5 (rhFGF-5; 1 μg/mL) was added to one group, and IL-3 (0.2 ng/mL) (Sigma) was added to another group. The test compounds were then introduced to the micro-culture plate wells. Total volume of media per well was 100 μl. Control groups lacking test compound were also prepared for each of the IL-3-supplemented and FGF-5-supplemented samples. The plates were then incubated at 37° C. in 5% CO2 for 3 days.\nAfter 3 days, colorimetric assays were performed using a Cell Counting Kit-8 (CCK-8) (Wako) according to the manufacturer's instructions to measure cell proliferation or suppression thereof by the test compound at varying concentrations. Briefly, 10 μl (1:2 dilution) of the CCK-8 reagent was added to each micro-culture plate well after which time the plates were incubated at […] for 3 hours. Absorbance at 450 nm was then measured using a microplate reader. Cell viability and proliferation for the IL-3-supplemented and FGF-5-supplemented groups was calculated as a measure of the optical density (OD) of cells treated with a test compound relative to the OD of the respective untreated controls, excluding the OD of blank controls (media only). Dose response curves were plotted and the respective inhibitory concentrations (IC50) for the test compounds were determined.",
  "data": [
    {"compound": "CC1=CC(=O)C(C(C)C)CC1", "note": "(centres unmarked) [Piperitone, 3-Methyl-6-(propan-2-yl)cyclohex-2-en-1-one]", "values": [
      {"measurement": "FGF-5-inhibitory activity (in words)", "setting": "judged from FR-BaF3 result", "result": "potent FGF-5-inhibitory active substances"},
      {"measurement": "FGF-5 Specificity IL-1/FGF-5", "setting": "ratio of the IC50 with IL-3 to the IC50 with FGF-5, BR: less reproducible", "result": 25}
    ]}
  ]
}
